Our source for the T/C values is PubChem BioAssay AID330 (DTP/NCI, 2004).

Molecules are shown by their SMILES. “And” between values parts separate entries of the source, which are not always exact repeats. Identical values can stand only once. Inconclusive results and toxic doses are left out.

In the test the test system is P388 leukemia ip, CD2F1 mice, survival T/C. Description: NCI In Vivo Anticancer Drug Screen. Data for tumor model P388 Leukemia (intraperitoneal) in CD2F1 (CDF1) mice. As to conditions: endpoint: median survival time, higher = longer survival. In outline:
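Mice carrying the transplanted tumor received test compound or vehicle. Survival was recorded in each group, and the value is the treated-group measurement divided by that of the vehicle-treated control group.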

Setting [1] is: dose: 25.0 mg/kg/injection, schedule: Q01DX009 (ip), vehicle: saline with Tween-80.
[2] abbreviates: dose: 50.0 mg/kg/injection, schedule: Q01DX009 (ip), vehicle: Klucel (hydroxypropylcellulose) (HPC).
[3] abbreviates: dose: 100.0 mg/kg/injection, schedule: Q01DX009 (ip), vehicle: Klucel (hydroxypropylcellulose) (HPC).
[4] abbreviates: dose: 200.0 mg/kg/injection, schedule: Q01DX009 (ip), vehicle: Klucel (hydroxypropylcellulose) (HPC).
Where [5] appears, read: dose: 100.0 mg/kg/injection, schedule: Q04DX002 (ip), vehicle: saline with Tween-80.
The mark [6] stands for this setting: dose: 200.0 mg/kg/injection, schedule: Q04DX002 (ip), vehicle: saline with Tween-80.
Setting [7] is: dose: 400.0 mg/kg/injection, schedule: Q04DX002 (ip), vehicle: saline with Tween-80.

Consider `Cc1c(-c2ccccc2)ccnc1/C=N/NC(=S)Nc1ccccc1`, for which the T/C by setting is: (dose: 1.56 mg/kg/injection, schedule: Q01DX009 (ip), vehicle: saline) 89 % of control; (dose: 3.12 mg/kg/injection, schedule: Q01DX009 (ip), vehicle: saline) 92 % of control; (dose: 6.25 mg/kg/injection, schedule: Q01DX009 (ip), vehicle: saline) 88 % of control and 95 % of control; under setting [1], 89 % of control; (dose: 50.0 mg/kg/injection, schedule: Q01DX009 (ip), vehicle: saline with Tween-80) 89 % of control; (dose: 50.0 mg/kg/injection, schedule: Q01DX009 (ip), vehicle: saline) 86 % of control.
With `CCC(c1ccc(Cl)cc1)C(C#N)c1ccc(Cl)cc1` (stereo not given), the T/C was 108 % of control under setting [2], 104 % of control under setting [3] and 102 % of control under setting [4].
Consider `O=C(O)Cc1c[nH]c2cc(Cl)cc(Cl)c12`, for which the T/C under setting [5] is 101 % of control, the T/C under setting [6] is 104 % of control and the T/C under setting [7] is 101 % of control.
Regarding `CS(=O)(=O)c1nnnn1-c1ccccc1`, the T/C is 106 % of control (dose: 12.5 mg/kg/injection, schedule: Q04DX003 (ip), vehicle: saline with Tween-80); 106 % of control (dose: 25.0 mg/kg/injection, schedule: Q04DX003 (ip), vehicle: saline with Tween-80); 102 % of control and 112 % of control (dose: 50.0 mg/kg/injection, schedule: Q04DX003 (ip), vehicle: saline with Tween-80); 105 % of control (dose: 100.0 mg/kg/injection, schedule: Q04DX003 (ip), vehicle: saline with Tween-80).
`CS(=O)(=O)Oc1ccc([N+](=O)[O-])cc1`: the T/C is 98 % of control under setting [2], 107 % of control under setting [3] and 114 % of control under setting [4].
As for `NC(CSCSCc1ccccc1)C(=O)O` (stereo not given), the T/C is, setting by setting: (dose: 25.0 mg/kg/injection, schedule: Q01DX009 (ip), vehicle: other) 102 % of control; (dose: 50.0 mg/kg/injection, schedule: Q01DX009 (ip), vehicle: other) 110 % of control; (dose: 100.0 mg/kg/injection, schedule: Q01DX009 (ip), vehicle: other) 102 % of control; (dose: 200.0 mg/kg/injection, schedule: Q01DX009 (ip), vehicle: other) 106 % of control.
In the case of `O=S1(=O)CCN(CCCCc2ccccc2)CC1`, the T/C reads like this: under setting [2], 94 % of control; under setting [3], 101 % of control; under setting [4], 101 % of control.
Turning to `CC(=O)NC1=C(N2CC2C)C(=O)C(NC(C)=O)=C(N2CC2C)C1=O` (stereo not given), the T/C is, setting by setting: (dose: 1.78 mg/kg/injection, schedule: Q01DX009 (ip), vehicle: saline) 122 % of control; (dose: 2.66 mg/kg/injection, schedule: Q01DX009 (ip), vehicle: saline) 160 % of control; (dose: 4.0 mg/kg/injection, schedule: Q01DX009 (ip), vehicle: saline) 163 % of control; (dose: 6.0 mg/kg/injection, schedule: Q01DX009 (ip), vehicle: saline) 210 % of control.
Consider `CC(C)OC(=O)CC1NS(=O)(=O)c2ccccc21` (stereo not given), for which the T/C by setting is: (dose: 50.0 mg/kg/injection, schedule: Q01DX005 (ip), vehicle: suspension in saline) 103 % of control; (dose: 100.0 mg/kg/injection, schedule: Q01DX005 (ip), vehicle: suspension in saline) 103 % of control; (dose: 200.0 mg/kg/injection, schedule: Q01DX005 (ip), vehicle: suspension in saline) 100 % of control.
Take `Cc1cc(C(=O)NCCc2ccc(S(=O)(=O)NC(=O)NCC3CC4CCC3C4)cc2)no1` (stereo not given): the T/C is, setting by setting: (dose: 50.0 mg/kg/injection, schedule: Q01DX001 (ip), vehicle: Klucel (hydroxypropylcellulose) (HPC)) 106 % of control; (dose: 100.0 mg/kg/injection, schedule: Q01DX001 (ip), vehicle: Klucel (hydroxypropylcellulose) (HPC)) 97 % of control; (dose: 200.0 mg/kg/injection, schedule: Q01DX001 (ip), vehicle: Klucel (hydroxypropylcellulose) (HPC)) 94 % of control.
With `Cc1c2cc[n+](C)cc2c(COC2OC(CO)C(O)C2O)c2c3ccccc3n(C)c12` (stereo not given), the T/C (dose: 60.0 mg/kg/injection, schedule: Q01DX005 (ip), vehicle: Klucel (hydroxypropylcellulose) (HPC)) was 123 % of control.
For `CC(C)C12OC1CC13OC1C1OC1C1OC132` (stereo not given), the T/C by setting is: under setting [5], 101 % of control; under setting [6], 99 % of control; under setting [7], 94 % of control.
Turning to `O=[N+]([O-])c1cc(F)ccc1O`, the T/C is, setting by setting: (dose: 6.25 mg/kg/injection, schedule: Q01DX009 (ip), vehicle: saline with Tween-80) 95 % of control; (dose: 12.5 mg/kg/injection, schedule: Q01DX009 (ip), vehicle: saline with Tween-80) 100 % of control; under setting [1], 104 % of control.
As for `N=C1CCCS1`, the T/C was 115 % of control (dose: 25.0 mg/kg/injection, schedule: Q01DX005 (ip), vehicle: saline) and 150 % of control (dose: 100.0 mg/kg/injection, schedule: Q01DX005 (ip), vehicle: saline).
Regarding `CN(C)c1ncnc2c1ncn2[C@H]1CCC[C@@H]1O`, the T/C is 109 % of control (dose: 0.37 mg/kg/injection, schedule: Q01DX005 (ip), vehicle: Klucel (hydroxypropylcellulose) (HPC)); 110 % of control (dose: 0.75 mg/kg/injection, schedule: Q01DX005 (ip), vehicle: Klucel (hydroxypropylcellulose) (HPC)); 112 % of control and 116 % of control (dose: 1.5 mg/kg/injection, schedule: Q01DX005 (ip), vehicle: Klucel (hydroxypropylcellulose) (HPC)).
Turning to `Cc1c2cc[n+](CCN3CCCCC3)cc2c(C)c2c1[nH]c1ccc(O)cc12`, the T/C runs as follows: (dose: 1.56 mg/kg/injection, schedule: Q04DX003 (ip), vehicle: suspension in saline) 152 % of control; (dose: 3.12 mg/kg/injection, schedule: Q04DX003 (ip), vehicle: suspension in saline) 152 % of control; (dose: 6.25 mg/kg/injection, schedule: Q04DX003 (ip), vehicle: saline) 178 % of control and 201 % of control; (dose: 12.5 mg/kg/injection, schedule: Q04DX003 (ip), vehicle: saline) 178 % of control; (dose: 12.5 mg/kg/injection, schedule: Q04DX003 (ip), vehicle: suspension in saline) 164 % of control; (dose: 25.0 mg/kg/injection, schedule: Q04DX003 (ip), vehicle: saline) 190 % of control and 194 % of control. Moreover, the T/C (dose: 25.0 mg/kg/injection, schedule: Q04DX003 (ip), vehicle: suspension in saline) was 164 % of control; the T/C (dose: 50.0 mg/kg/injection, schedule: Q04DX003 (ip), vehicle: saline) was 255 % of control; the T/C (dose: 50.0 mg/kg/injection, schedule: Q04DX003 (ip), vehicle: suspension in saline) was 152 % of control; the T/C (dose: 100.0 mg/kg/injection, schedule: Q04DX003 (ip), vehicle: saline) is 216 % of control; the T/C (dose: 100.0 mg/kg/injection, schedule: Q04DX003 (ip), vehicle: suspension in saline) was 169 % of control; the T/C (dose: 200.0 mg/kg/injection, schedule: Q04DX003 (ip), vehicle: saline) was 104 % of control. In addition, where the note is “dose: 200.0 mg/kg/injection, schedule: Q04DX003 (ip), vehicle: suspension in saline”, the T/C is 98 % of control.
In the case of `CCN(CC)c1ccc2[nH]c3c(C(N)=O)cc(=O)c(=O)c=3oc2c1`, the T/C by setting is: (dose: 12.5 mg/kg/injection, schedule: Q01DX005 (ip), vehicle: saline with Tween-80) 104 % of control and 107 % of control; (dose: 25.0 mg/kg/injection, schedule: Q01DX005 (ip), vehicle: saline with Tween-80) 104 % of control and 117 % of control; (dose: 50.0 mg/kg/injection, schedule: Q01DX005 (ip), vehicle: saline with Tween-80) 107 % of control and 120 % of control; (dose: 100.0 mg/kg/injection, schedule: Q01DX005 (ip), vehicle: saline with Tween-80) 113 % of control and 122 % of control and 123 % of control.
As to `CC(=O)C1=C(O)C2(C)c3c(O)c(C)c(O)c(C(C)=O)c3OC2CC1=O` (stereo not given), the T/C (dose: 6.25 mg/kg/injection, schedule: Q01DX009 (ip), vehicle: gum acacia) is 100 % of control and 106 % of control; the T/C (dose: 12.5 mg/kg/injection, schedule: Q01DX009 (ip), vehicle: gum acacia) is 103 % of control and 108 % of control; the T/C (dose: 25.0 mg/kg/injection, schedule: Q01DX009 (ip), vehicle: gum acacia) was 108 % of control and 110 % of control; the T/C (dose: 50.0 mg/kg/injection, schedule: Q01DX009 (ip), vehicle: gum acacia) was 108 % of control and 110 % of control.
Take `CC(=O)NC(Cc1cc(I)c(OC(C)=O)c(I)c1)C(C)=O` (stereo not given): the T/C was 101 % of control under setting [2], 100 % of control under setting [3] and 98 % of control under setting [4].
As for `C[N+]1(Cc2ccc(C(N)=O)cc2)CCC(CCC2CC[N+](C)(Cc3ccc(C(N)=O)cc3)CC2)CC1` (stereo not given), the T/C reads like this: (dose: 0.78 mg/kg/injection, schedule: Q01DX005 (ip), vehicle: saline with Tween-80) 93 % of control; (dose: 1.56 mg/kg/injection, schedule: Q01DX005 (ip), vehicle: saline with Tween-80) 101 % of control; (dose: 3.13 mg/kg/injection, schedule: Q01DX005 (ip), vehicle: saline with Tween-80) 90 % of control.
